{"source": "paper PMC9652379", "about": "“Safety evaluations of a synthetic antimicrobial peptide administered intravenously in rats and dogs” (Scientific Reports, 2022)", "key": {"[1]": {"system": "beagle dogs", "assay": "Four-week toxicity study in dogs: necroscopy, organ weights, microscopic findings", "assay_type": "in vivo, dog", "conditions": "for Kidney: degeneration/regeneration, tubules, minimal (incidence): 4-week dosing; for Kidney: regeneration, tubules, minimal (incidence): 4-week recovery period", "experimental": "These higher weights were correlated microscopically with minimal tubule degeneration/regeneration and minimal interstitial cell infiltrates. There were no other SET-M33-related organ weight changes (Table 6). There were no organ weight changes at recovery sacrifice, or macroscopic findings at terminal and recovery necroscopy. […] The kidney findings included minimal tubule degeneration/regeneration at 1.5 mg/kg/day and 4 mg/kg/day in males, and at 4.0 mg/kg/day in females, and minimal interstitial cell infiltrate in both sexes at a dose of 4.0 mg/kg/day. Degeneration featured vacuolation, cell sloughing and/or tinctorial change, and regeneration was characterized by increased basophilia, nuclear crowding and/or increased mitoses of cortical tubule epithelial cells. Regenerative changes were typically more pronounced than degenerative changes. SET-M33-related microscopic findings in kidney were correlated with higher kidney weights (absolute and relative to body and brain weight) and elevated BUN and creatinine in both sexes at 4.0 mg/kg/day. […] After the 4-week recovery period, kidney interstitial infiltrates cleared completely and tubule degeneration/regeneration resolved almost completely. At the infusion sites, there was complete recovery from vascular/perivascular inflammation and tunica intima hypertrophy/hyperplasia with partial recovery from vascular thrombi and hypertrophy/hyperplasia of the tunica media. Minimal regeneration of cortical tubule epithelial cells, observed in the kidneys of 1 female at a dose of 4.0 mg/kg/day, was considered to be due to a repair process, and a slight thrombus observed at the infusion site (saphenous vein) of another female was also in line with ongoing repair.\nComplete macroscopic examination was performed on all animals, including examination of the external surface and all orifices; the external surfaces of the brain and spinal cord; the organs and tissues of the cranial, thoracic, abdominal and pelvic cavities and neck; and the rest of the carcass for macroscopic morphological abnormalities. Necropsy was performed on up to 3 animals/sex/group after treatment for 4 weeks and on 2 animals/sex/group after a 4-week treatment-free recovery period. Organs and tissues were weighed, preserved and examined microscopically. Prior to weighing, organs were carefully dissected and properly trimmed to remove adipose and other contiguous tissue in a uniform manner. Organs were weighed as soon as possible after dissection in order to avoid drying. Paired organs were weighed together. Eyes, optic nerve and testes were initially placed in Modified Davidson’s solution and then kept in 10% neutral buffered formalin (NBF). Lungs and urinary bladder were infused with 10% NBF prior to immersion in a larger volume of the same fixative. All other tissues were preserved in 10% NBF."}, "[2]": {"system": "male rats", "assay": "Neurological toxicity in rats (Irwin test, body temperature, locomotor activity, body weight)", "assay_type": "in vivo", "experimental": "The purpose of this study was to evaluate the neurological side-effects of SET-M33 following a single intravenous injection of 5, 9 and 15 mg/kg and vehicle (6 animals/group). The study was based on subjective observation of central nervous system effects on general behaviour (Irwin test), combined with objective evaluation of body temperature and locomotor activity in male rats[32],[33]. Effects on body weight were also assessed. Again the dose levels were selected on the basis of the DRF study reported above.\nEvaluation of SET-M33 neurological toxicity was based on the method described by Irwin[32],[33]. On the day prior to dosing, detailed subjective observation of all animals was made to assess the neurobehavioral and physiological state of untreated rats. After subjective observation, rectal temperature was measured and spontaneous locomotor activity was assessed. On the day of dosing, the animals were treated and then returned to their home cages. […] During these observations, the following parameters were systematically evaluated for each animal using a standard procedure: lethality, restlessness, apathy, writhing, fighting, stereotyped behaviour, tremor, twitches, convulsions, exophthalmos, abnormal respiration, alertness, startle response, loss of righting reflex, abnormal body carriage, abnormal gait, Straub tail, piloerection, pupil diameter, light-pupil response, touch response, fearfulness, pinna reflex, corneal reflex, catalepsy, passivity, aggressiveness, body tone, grip strength, cutaneous blood flow, cyanosis, ptosis, lacrimation, salivation, pain response, motility impairment, grooming, diarrhoea, vocalization, increased urination. Normal attributes of animals (e.g. alertness, body tone etc.) were subjectively scored as 4; enhancement or depression of these attributes by SET-M33 was scored with higher or lower integers, respectively. Attributes normally absent in animals (e.g. abnormal gait, abnormal respiration, tremors etc.) were subjectively scored from 0 (normal) to 8. […] Finally, spontaneous locomotor activity was analysed. […]"}, "[3]": {"system": "K. pneumoniae", "conditions": "cited from earlier work"}}, "note": "Positions of bridges follow the written chain, without caps; N, C: chain ends. Non-standard residues stand in square brackets, D forms with d. Residues, ends and D or L forms follow the SMILES beside them. Chains are numbered I, II in the order given. βAla = NCCC(=O)O", "data": [{"smiles": "CC[C@H](C)[C@H](NC(=O)[C@H](CCCCN)NC(=O)[C@@H](N)CCCCN)C(=O)N[C@@H](CCCNC(=N)N)C(=O)N[C@H](C(=O)N[C@@H](CCCNC(=N)N)C(=O)N[C@@H](CC(C)C)C(=O)N[C@@H](CO)C(=O)N[C@@H](C)C(=O)NCCCC[C@H](NC(=O)[C@H](C)NC(=O)[C@H](CO)NC(=O)[C@H](CC(C)C)NC(=O)[C@H](CCCNC(=N)N)NC(=O)[C@@H](NC(=O)[C@H](CCCNC(=N)N)NC(=O)[C@@H](NC(=O)[C@H](CCCCN)NC(=O)[C@@H](N)CCCCN)[C@@H](C)CC)C(C)C)C(=O)NCCCC[C@H](NC(=O)[C@H](CCCCNC(=O)[C@H](C)NC(=O)[C@H](CO)NC(=O)[C@H](CC(C)C)NC(=O)[C@H](CCCNC(=N)N)NC(=O)[C@@H](NC(=O)[C@H](CCCNC(=N)N)NC(=O)[C@@H](NC(=O)[C@H](CCCCN)NC(=O)[C@@H](N)CCCCN)[C@@H](C)CC)C(C)C)NC(=O)[C@H](C)NC(=O)[C@H](CO)NC(=O)[C@H](CC(C)C)NC(=O)[C@H](CCCNC(=N)N)NC(=O)[C@@H](NC(=O)[C@H](CCCNC(=N)N)NC(=O)[C@@H](NC(=O)[C@H](CCCCN)NC(=O)[C@@H](N)CCCCN)[C@@H](C)CC)C(C)C)C(=O)NCCC(=O)O)C(C)C", "note": "[SET-M33] (I: H-KKIRVRLSAKK[βAla]-OH / II: H-KKIRVRLSAK / III: H-KKIRVRLSA / IV: H-KKIRVRLSA; amide I:10-IV:C, I:11-II:C, II:10-III:C (inferred); N-terminus and C-terminus assumed)", "values": [{"measurement": "Infusion site (combined incidence, four sites): haemorrhage, vascular/perivascular, minimal", "setting": "[1]; dog, in vivo, 0.5 mg/kg/day", "result": 1}, {"measurement": "Infusion site (combined incidence, four sites): haemorrhage, vascular/perivascular, moderate", "setting": "[1]; dog, in vivo, 0.5 mg/kg/day", "result": 0}, {"measurement": "Infusion site (combined incidence, four sites): haemorrhage, vascular/perivascular, slight", "setting": "[1]; dog, in vivo, 0.5 mg/kg/day", "result": 1}, {"measurement": "Infusion site (combined incidence, four sites): haemorrhage, vascular/perivascular, total", "setting": "[1]; dog, in vivo, 0.5 mg/kg/day", "result": 2}, {"measurement": "Infusion site (combined incidence, four sites): hypertrophy/hyperplasia, tunica intima, minimal", "setting": "[1]; dog, in vivo, 0.5 mg/kg/day", "result": 0}, {"measurement": "Infusion site (combined incidence, four sites): hypertrophy/hyperplasia, tunica media, minimal", "setting": "[1]; dog, in vivo, 0.5 mg/kg/day", "result": 0}, {"measurement": "Infusion site (combined incidence, four sites): inflammation, vascular/perivascular, moderate", "setting": "[1]; dog, in vivo, 0.5 mg/kg/day", "result": 0}, {"measurement": "Infusion site (combined incidence, four sites): thrombus, blood vessels, high", "setting": "[1]; dog, in vivo, 0.5 mg/kg/day", "result": 0}, {"measurement": "Infusion site (combined incidence, four sites): thrombus, blood vessels, moderate", "setting": "[1]; dog, in vivo, 0.5 mg/kg/day", "result": 0}, {"measurement": "Kidney: infiltrate, interstitium, minimal (incidence)", "setting": "[1]; dog, in vivo, 0.5 mg/kg/day", "result": 0}, {"measurement": "Infusion site (combined incidence, four sites): haemorrhage, vascular/perivascular, slight", "setting": "[1]; dog, in vivo, 1.5 mg/kg/day", "result": 0}, {"measurement": "Infusion site (combined incidence, four sites): hypertrophy/hyperplasia, tunica intima, minimal", "setting": "[1]; dog, in vivo, 1.5 mg/kg/day", "result": 0}, {"measurement": "Infusion site (combined incidence, four sites): hypertrophy/hyperplasia, tunica media, minimal", "setting": "[1]; dog, in vivo, 1.5 mg/kg/day", "result": 0}, {"measurement": "Infusion site (combined incidence, four sites): inflammation, vascular/perivascular, moderate", "setting": "[1]; dog, in vivo, 1.5 mg/kg/day", "result": 0}, {"measurement": "Infusion site (combined incidence, four sites): thrombus, blood vessels, high", "setting": "[1]; dog, in vivo, 1.5 mg/kg/day", "result": 0}, {"measurement": "Infusion site (combined incidence, four sites): thrombus, blood vessels, minimal", "setting": "[1]; dog, in vivo, 1.5 mg/kg/day", "result": 0}, {"measurement": "Infusion site (combined incidence, four sites): thrombus, blood vessels, slight", "setting": "[1]; dog, in vivo, 1.5 mg/kg/day", "result": 0}, {"measurement": "Infusion site (combined incidence, four sites): haemorrhage, vascular/perivascular, moderate", "setting": "[1]; dog, in vivo, 4 mg/kg/day", "result": 0}, {"measurement": "Infusion site (combined incidence, four sites): hypertrophy/hyperplasia, tunica intima, minimal", "setting": "[1]; dog, in vivo, 4 mg/kg/day", "result": 0}, {"measurement": "Infusion site (combined incidence, four sites): hypertrophy/hyperplasia, tunica intima, slight", "setting": "[1]; dog, in vivo, 4 mg/kg/day", "result": 0}, {"measurement": "Infusion site (combined incidence, four sites): hypertrophy/hyperplasia, tunica intima, total", "setting": "[1]; dog, in vivo, 4 mg/kg/day", "result": 0}, {"measurement": "Infusion site (combined incidence, four sites): thrombus, blood vessels, minimal", "setting": "[1]; dog, in vivo, 4 mg/kg/day", "result": 0}, {"measurement": "Infusion site (combined incidence, four sites): thrombus, blood vessels, moderate", "setting": "[1]; dog, in vivo, 4 mg/kg/day", "result": 5}, {"measurement": "Kidney: degeneration/regeneration, tubules, minimal (incidence)", "setting": "[1]; female dogs, 0.5 mg/kg/day", "result": 0}, {"measurement": "Kidney: regeneration, tubules, minimal (incidence)", "setting": "[1]; female dogs, 0.5 mg/kg/day", "result": 0}, {"measurement": "Kidney: degeneration/regeneration, tubules, minimal (incidence)", "setting": "[1]; female dogs, 1.5 mg/kg/day", "result": 0}, {"measurement": "Kidney: regeneration, tubules, minimal (incidence)", "setting": "[1]; female dogs, 1.5 mg/kg/day", "result": 0}, {"measurement": "Kidney: degeneration/regeneration, tubules, minimal (incidence)", "setting": "[1]; female dogs, 4.0 mg/kg/day", "result": 2}, {"measurement": "Kidney: regeneration, tubules, minimal (incidence)", "setting": "[1]; female dogs, 4.0 mg/kg/day", "result": 1}, {"measurement": "Kidney: degeneration/regeneration, tubules, minimal (incidence)", "setting": "[1]; male dogs, 0.5 mg/kg/day", "result": 2}, {"measurement": "Kidney: regeneration, tubules, minimal (incidence)", "setting": "[1]; male dogs, 0.5 mg/kg/day", "result": 0}, {"measurement": "Kidney: degeneration/regeneration, tubules, minimal (incidence)", "setting": "[1]; male dogs, 1.5 mg/kg/day", "result": 3}, {"measurement": "Kidney: regeneration, tubules, minimal (incidence)", "setting": "[1]; male dogs, 1.5 mg/kg/day", "result": 0}, {"measurement": "Kidney: degeneration/regeneration, tubules, minimal (incidence)", "setting": "[1]; male dogs, 4.0 mg/kg/day", "result": 0}, {"measurement": "Kidney: regeneration, tubules, minimal (incidence)", "setting": "[1]; male dogs, 4.0 mg/kg/day", "result": 0}, {"measurement": "adverse clinical signs (Irwin test)", "setting": "[2]; male rats, 5, 9 and 15 mg/kg single iv, 5, 30, 90, 240 min and 24 h post-dose", "result": "did not cause any adverse clinical signs"}, {"measurement": "delayed toxicity and mortality", "setting": "[2]; male rats, 5, 9 and 15 mg/kg single iv, up to day 7", "result": "No delayed effects of toxicity and no mortality"}, {"measurement": "group mean body temperature lower than vehicle-treated control group", "setting": "[2]; male rats, 9 and 15 mg/kg single iv, 5 min post-dose", "result": "0.4–0.6 °C"}, {"measurement": "MIC50", "setting": "[3]", "result": 1.4, "unit": "µM"}, {"measurement": "MIC90", "setting": "[3]", "result": 2.8, "unit": "µM"}]}]}
